From the supplement of paper PMC11061612

Tests used:
[1] = compound: C1CC(C1)(C(=O)[O-])C(=O)[O-].N.N.[Pt+2] [Carboplatin]; settings: max 10 µM
In short: (§1)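 Cancer cell lines were seeded into 1536-well plates in 7.5 μl medium (DMEM/F12 or RPMI, 10% FBS), held 24 hours at 37°C and 5% CO2, and dosed for 72 hours with final DMSO typically 0.2%. Luminescence from CellTiter-Glo 2.0, scaled between blank-well and DMSO-well means, served as viability. The single-agent IC50 was obtained from dose-response fits with a non-linear mixed effects model, each fit being a two-parameter logistic curve.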

[2] = compound: C1CN(CCC1(C(=O)N[C@@H](CCO)C2=CC=C(C=C2)Cl)N)C3=NC=NC4=C3C=CN4 [AZD5363]; settings: max 10 µM
In short: as §1

[3] = compound: C=CCn1c(=O)c2cnc(Nc3ccc(N4CCN(C)CC4)cc3)nc2n1-c1cccc(C(C)(C)O)n1 [AZD1775]; settings: max 3 µM
In short: as §1

[4] = compound: CC(=O)Nc1cccc(-n2c(=O)n(C3CC3)c(=O)c3c(Nc4ccc(I)cc4F)n(C)c(=O)c(C)c32)c1 [Trametinib]; settings: max 1 µM
In short: as §1

[5] = compound: CC(=O)O[C@H]1C(=O)[C@@]2(C)[C@H]([C@H](OC(=O)c3ccccc3)[C@]3(O)C[C@H](OC(=O)[C@H](O)[C@@H](NC(=O)c4ccccc4)c4ccccc4)C(C)=C1C3(C)C)[C@]1(OC(C)=O)CO[C@@H]1C[C@@H]2O [Paclitaxel]; settings: max 3 µM
In short: as §1

[6] = compound: CC(=O)c1c(C)c2cnc(Nc3ccc(N4CCNCC4)cn3)nc2n(C2CCCC2)c1=O [Palbociclib]; settings: max 10 µM
In short: as §1

[7] = compound: CC(C)n1c(=O)n(C)c2cnc3cc(F)c(-c4ccc(OCCCN5CCCCC5)nc4)cc3c21 [AZD1390]; settings: max 0.3 µM
In short: as §1

[8] = compound: CC1(C)CCC(CN2CCN(c3ccc(C(=O)NS(=O)(=O)c4ccc(NCC5CCOCC5)c([N+](=O)[O-])c4)c(Oc4cnc5[nH]ccc5c4)c3)CC2)=C(c2ccc(Cl)cc2)C1 [Venetoclax]; settings: max 1 µM
In short: as §1

[9] = compound: CC1=C(C(=CC=C1)Cl)NC(=O)C2=CN=C(S2)NC3=CC(=NC(=N3)C)N4CCN(CC4)CCO [Dasatinib]; settings: max 2 µM
In short: as §1

[10] = compound: CC1=CN2[C@@H](C1)C=NC3=CC(=C(C=C3C2=O)OC)OCCCCCOC4=C(C=C5C(=C4)N=C[C@@H]6CC(=CN6C5=O)C)OC [SG3199]; settings: max 0.001 µM
In short: as §1

[11] = compound: CCN(CCO)CCCOc1ccc2c(Nc3cc(CC(=O)Nc4cccc(F)c4)[nH]n3)ncnc2c1 [AZD2811]; settings: max 1 µM
In short: as §1

[12] = compound: CCc1c2c(nc3ccc(O)cc13)-c1cc3c(c(=O)n1C2)COC(=O)[C@]3(O)CC [SN-38]; settings: max 0.3 µM
In short: as §1

[13] = compound: CN(C)CCCOc1ccc(-c2ccc3ncc4c(c3c2)n(C2CCOCC2)c(=O)n4C)cn1 [AZD0156]; settings: max 3 µM
In short: as §1

[14] = compound: CN(CC[C@H](CSC1=CC=CC=C1)NC2=C(C=C(C=C2)S(=O)(=O)NC(=O)C3=CC=C(C=C3)N4CCC(CC4)[C@H](C5=CC=CC=C5C6=CC=C(C=C6)Cl)O)S(=O)(=O)C(F)(F)F)CCO [AZD4320]; settings: max 1 µM
In short: as §1

[15] = compound: COc1cc(Nc2ncc3c(n2)-c2ccc(Cl)cc2C(c2c(F)cccc2OC)=NC3)ccc1C(=O)O [Alisertib]; settings: max 10 µM
In short: as §1

[16] = compound: COc1cc([C@@H]2c3cc4c(cc3[C@@H](O[C@@H]3O[C@@H]5CO[C@@H](C)O[C@H]5[C@H](O)[C@H]3O)[C@H]3COC(=O)[C@H]23)OCO4)cc(OC)c1O [Etoposide]; settings: max 10 µM
In short: as §1

[17] = compound: COc1cc2ncnc(Nc3ccc(F)c(Cl)c3)c2cc1OCCCN1CCOCC1 [Gefitinib]; settings: max 10 µM
In short: as §1

[18] = compound: COc1cccc(OCCCN)c1-c1cc(Nc2cnc(C#N)cn2)n[nH]1 [Prexasertib]; settings: max 1 µM
In short: as §1

[19] = compound: COc1cccc2c1C(=O)c1c(O)c3c(c(O)c1C2=O)C[C@@](O)(C(=O)CO)C[C@@H]3O[C@H]1C[C@H](N)[C@H](O)[C@H](C)O1 [Doxorubicin]; settings: max 1 µM
In short: as §1

[20] = compound: COc1nnc2ccc(N3CCC(c4ccc(OCCN5CCN(C)C(=O)[C@H]5C)cc4)CC3)nn12 [AZD5153]; settings: max 1 µM
In short: as §1

[21] = compound: CS(=O)(=O)CCNCc1ccc(-c2ccc3ncnc(Nc4ccc(OCc5cccc(F)c5)c(Cl)c4)c3c2)o1 [Lapatinib]; settings: max 10 µM
In short: as §1

[22] = compound: C[C@@H](Nc1cc(F)cc(F)c1)c1cc(C(=O)N(C)C)cc2c(=O)cc(N3CCOCC3)oc12 [AZD8186]; settings: max 10 µM
In short: as §1

[23] = compound: C[C@@H](Oc1cc(-c2cnn(C3CCNCC3)c2)cnc1N)c1c(Cl)ccc(F)c1Cl [Crizotinib]; settings: max 10 µM
In short: as §1

[24] = compound: C[C@@H](c1ccc2nccn2c1)n1nnc2ncc(-c3cnn(C)c3)nc21 [Savolitinib]; settings: max 1 µM
In short: as §1

[25] = compound: C[C@@H]1COCCN1C2=NC(=NC(=C2)C3(CC3)[S@](=N)(=O)C)C4=C5C=CNC5=NC=C4 [AZD6738]; settings: max 10 µM
In short: as §1

[26] = compound: Cc1c2c(nn1C)CSCc1cc(n(C)n1)CSc1cc(c3ccccc3c1)OCCCc1c(C(=O)O)n(C)c3c-2c(Cl)ccc13 [AZD5991]; settings: max 1 µM
In short: as §1

[27] = compound: Cc1cc2ncnn2cc1Nc1ncc2c(n1)n(C1CCOCC1)c(=O)n2C [AZD7648]; settings: max 10 µM
In short: as §1

[28] = compound: Cc1nc(-c2cn3c(n2)-c2ccc(-c4cnn(C(C)(C)C(N)=O)c4)cc2OCC3)n(C(C)C)n1 [Taselisib]; settings: max 10 µM
In short: as §1

[29] = compound: Cn1cnc2c(F)c(Nc3ccc(Br)cc3Cl)c(C(=O)NOCCO)cc21 [Selumetinib]; settings: max 10 µM
In short: as §1

[30] = compound: N#Cc1cnc(Nc2cc(NC[C@H]3CNCCO3)c(C(F)(F)F)cn2)cn1 [SRA737]; settings: max 10 µM
In short: as §1

[31] = compound: NC1(c2ccc(-c3nc4ccn5c(=O)[nH]nc5c4cc3-c3ccccc3)cc2)CCC1 [MK-2206]; settings: max 10 µM
In short: as §1

[32] = compound: Nc1ccn([C@@H]2O[C@H](CO)[C@@H](O)C2(F)F)c(=O)n1 [Gemcitabine]; settings: max 0.3 µM
In short: as §1

[33] = compound: O=C(Nc1ccc2[nH]nc(-c3ccncc3)c2c1)[C@@H]1CCN(CC(=O)N2CCN(c3ccc(-c4ncccn4)cc3)CC2)C1; settings: max 5 µM
In short: as §1

[34] = compound: O=C(c1cc(Cc2n[nH]c(=O)c3ccccc23)ccc1F)N1CCN(C(=O)C2CC2)CC1 [Olaparib]; settings: max 10 µM
In short: as §1

[35] = compound: O=c1[nH]cc(F)c(=O)[nH]1 [5-Fluorouracil]; settings: max 20 µM
In short: as §1

Row | Cell Line | IC50, cell viability 72 h [1] [µM] | IC50, cell viability 72 h [2] [µM] | IC50, cell viability 72 h [3] [nM] | IC50, cell viability 72 h [4] [nM] | IC50, cell viability 72 h [5] [nM] | IC50, cell viability 72 h [6] [µM] | IC50, cell viability 72 h [7] [nM] | IC50, cell viability 72 h [8] [nM] | IC50, cell viability 72 h [9] [nM] | IC50, cell viability 72 h [10] [nM] | IC50, cell viability 72 h [11] [nM] | IC50, cell viability 72 h [12] [nM] | IC50, cell viability 72 h [13] [nM] | IC50, cell viability 72 h [14] [nM] | IC50, cell viability 72 h [15] [µM] | IC50, cell viability 72 h [16] [µM] | IC50, cell viability 72 h [17] [µM] | IC50, cell viability 72 h [18] [nM] | IC50, cell viability 72 h [19] [nM] | IC50, cell viability 72 h [20] [nM] | IC50, cell viability 72 h [21] [µM] | IC50, cell viability 72 h [22] [µM] | IC50, cell viability 72 h [23] [µM] | IC50, cell viability 72 h [24] [nM] | IC50, cell viability 72 h [25] [µM] | IC50, cell viability 72 h [26] [nM] | IC50, cell viability 72 h [27] [µM] | IC50, cell viability 72 h [28] [µM] | IC50, cell viability 72 h [29] [µM] | IC50, cell viability 72 h [30] [µM] | IC50, cell viability 72 h [31] [µM] | IC50, cell viability 72 h [32] [nM] | IC50, cell viability 72 h [33] [µM] | IC50, cell viability 72 h [34] [µM] | IC50, cell viability 72 h [35] [µM]
1 | NCI-H1299 (Non-Small Cell Lung Carcinoma) | > 10 | > 10 | 364 | 912 | 134 | > 10 | > 300 | > 1000 | 1570 | > 1 | > 1000 | > 300 | > 3000 | > 1000 | > 10 | > 10 | > 10 | 100 | 880 | 184 | > 10 | > 10 | > 10 | > 1000 | 9.87 | > 1000 | > 10 | > 10 | > 10 | > 10 | > 10 | 239 | > 5 | > 10 | > 20
2 | NCI-H2595 (Mesothelioma) | > 10 | > 10 | > 3000 | > 1000 | 1280 | > 10 | > 300 | > 1000 | > 2000 | > 1 | > 1000 | > 300 | > 3000 | > 1000 | > 10 | > 10 | > 10 | > 1000 | > 1000 | > 1000 | > 10 | > 10 | > 10 | > 1000 | > 10 | > 1000 | > 10 | > 10 | > 10 | > 10 | > 10 | > 300 | > 5 | > 10 | > 20
